Assay results from US10857136B2, “Compounds for use in the prevention and/or treatment of non-alcoholic fat liver disease and non-alcoholic steatohepatitis” (SJT MOLECULAR RESEARCH, SL, priority 2017, dated 2020).

Key:
Assay type in all cases: in vivo
[1] = system: DIO-NASH mice (C57Bl/6J male mice); experiment: Total fat content in liver (morphometry, H&E), 8 weeks assay in DIO-NASH mice; settings: 50 mg/kg, p.o., b.i.d., vs DIO-NASH vehicle
Description: The DIO-NASH mouse model is fed a high fat diet that results on non-alcoholic fat liver disease and are based on C57Bl/6J mice put on a 40% high fat diet prior to the assays. For the assessment of effect of the compounds of the invention in liver lipid content in non-alcoholic fat liver disease, 34 C57Bl/6J male mice (5-week-old at delivery), obtained from Janvier, France, were used. The DIO-NASH mice group were put on high fat diet (40% AMLN diet, D09100301 Research Diets, USA) and a control group (LEAN-CHOW) was put on a regular chow diet (Altromin 1324, Brogaarden, Denmark) for 35 weeks prior to the study.
The animals (kept in single housings) were checked minimum once daily where signs of abnormal behavior, abnormal locomotor activity, ataxia or clinical signs of disease (lack of grooming, raised fur, signs of pain upon handling, loss of excessive body-weight) were followed closely. […]
To assess the effect of compound 4a on hepatic lipid content in mice with non-alcoholic fat liver disease, DIO-NASH mice (C57Bl/6J male mice) were treated with a hydrochloride salt of compound 4a during 8 weeks (50 mg/kg, p.o., b.i.d.), versus a control of DIO-NASH mice treated with saline (0.9% NaCl) and versus LEAN-CHOW mice also treated with saline (0.9% NaCl), […]. Liver lipid content was determined by morphometry. […]

[2] = system: DIO-NASH mice (C57Bl/6J male mice); experiment: Differential gene expression analysis by RNAseq in liver of DIO-NASH mice
Experimental: The effect of the compounds of the invention in the development of liver fibrosis was also studied by differential gene expression analysis by RNAseq where DIO-NASH mice (C57Bl/6J male mice) were treated with a hydrochloride salt of compound 4a during 8 weeks (50 mg/kg, p.o., b.i.d.), versus a pathological control of DIO-NASH mice and a non-pathological control LEAN-CHOW mice, both treated with the vehicle (0.9% NaCl).
The animals were kept and examined under the same conditions were used as in example 2.2. The liver biopsies were also carried out under the same conditions as in example 2.2. The DIO-NASH mice group were put on high fat diet (40% AMLN diet, D09100301 Research Diets, USA) and a control group (LEAN-CHOW) was put on a regular chow diet (Altromin 1324, Brogaarden, Denmark) for 35 weeks prior to the study.
FIGS. 12 and 13 show the effect of treatment of DIO-NASH mice with a hydrochloride salt of compound 4a versus a control DIO-NASH mice group treated with vehicle and a LEAN-CHOW […] control group also treated with vehicle, in the expression of collagen genes which are fibrosis markers: collagen type I-alpha 1 (COL1A1) and alpha 2 (COL1A2), collagen type III alpha 1 (COL3A1), collagen V alpha 1 (COL5A1), alpha 2 (COL5A2) and alpha 3 (COL5A3), collagen type VI alpha 1 (COL6A1), alpha 2 (COL6A2) and alpha 3 (COL6A3).
Results are given as expression level in RPKM for each mice group, wherein RPKM (Reads per kilo base per million mapped reads) is a method of quantifying gene expression from RNA sequencing data by normalizing for […] and the number of sequencing reads.
Date expressed as mean±s.e.m. values from 6 animals. ***P<0.001 vs. NASH vehicle.

[3] = system: DIO-NASH mice (C57Bl/6J male mice); experiment: Liver fibrosis: collagen type I (col1a1) IHC staining in DIO-NASH mice; settings: 50 mg/kg, p.o., b.i.d., 8 weeks
Experimental: To assess the effect of the compounds of the invention in fibrosis of liver in the treatment of non-alcoholic fat liver disease, the collagen type I (a fibrosis marker) in liver was measured after the 8 weeks of the study where DIO-NASH mice (C57Bl/6J male mice) were treated with a hydrochloride salt of compound 4a during 8 weeks (50 mg/kg, p.o., b.i.d.), versus a pathological control of DIO-NASH mice and a non-pathological control LEAN-CHOW mice, both treated with the vehicle (0.9% NaCl).
Type I collagen content was measured by IHC staining: Type I collagen (Southern Biotech, Cat. 1310-01) IHC was performed using standard procedures. Briefly, after antigen retrieval and blocking of endogenous peroxidase activity, liver slides were incubated with primary antibody. The primary antibody was detected using biotinylated secondary antibody and amplified using a vectastain-TSA-vectastain method a polymeric HRP-linker antibody conjugate. Next, the primary antibody was visualized with DAB as chromogen. Finally, sections were counterstained in hematoxylin and cover-slipped.

## COc1ccc(-c2nc(C(=O)NCCN)cc3c2[nH]c2ccccc23)cc1 [Compound 4a, N(-ethylamine)-1-benzosubstituted-β-carboline-3-carboxamide]
[1]
  steatosis in representative images of liver morphology (H&E): diminished the steatosis
[1]; p<0.001
  liver lipid content (steatosis) determined by morphometry: reduced liver lipid content
[2]; 50 mg p.o., b.i.d, 8 weeks
  expression of CD36 (lipid metabolism): decreased expression
  expression of Casp7 and IL18 (hepatocellular cell death): increased expression
  expression of GLUT4 (insulin signaling): increased expression
  expression of MAPK and AKT (insulin signaling): decreased expression
  expression of SQLE (lipid metabolism): increased expression
  fibrosis genes related to stellate cell activation, such as Col1a1, Col3a1 and TIMP1: reduction
  inflammation markers related to monocyte recruitment, such as CD68, CCR2, MAC-2: reduction
[2]; 50 mg/kg, p.o., b.i.d., 8 weeks
  TLR4, TGFB and TGFBR gene expression (inflammation signaling): reduction
[2]; 50 mg/kg, p.o., b.i.d., 8 weeks, vs DIO-NASH vehicle, P<0.001
  expression of collagen genes (COL1A1, COL1A2, COL3A1, COL5A1, COL5A2, COL5A3, COL6A1, COL6A2, COL6A3): significantly reduced the expression of the collagen genes
[2]; 8 weeks treatment, RNAseq
  number of genes regulated: more than 2000 genes
[3]; end of study
  anti-type I collagen (col1a1) staining, representative images of liver samples: visible change in this fibrosis marker
[3]; vs DIO-NASH vehicle
  total content of liver collagen type 1 (col1a1) determined by morphometry: reduced total liver col1a1
